One assay deals with T1, KCNQ2 potassium channel (CHO-KCNQ2 cells) (Homo sapiens, UniProt O43526).
T1 construct: expressed in transfected cells; host or cells: CHO cells stably expressing KCNQ2, kept under G418 selection
T1 sequence (O43526 whole entry): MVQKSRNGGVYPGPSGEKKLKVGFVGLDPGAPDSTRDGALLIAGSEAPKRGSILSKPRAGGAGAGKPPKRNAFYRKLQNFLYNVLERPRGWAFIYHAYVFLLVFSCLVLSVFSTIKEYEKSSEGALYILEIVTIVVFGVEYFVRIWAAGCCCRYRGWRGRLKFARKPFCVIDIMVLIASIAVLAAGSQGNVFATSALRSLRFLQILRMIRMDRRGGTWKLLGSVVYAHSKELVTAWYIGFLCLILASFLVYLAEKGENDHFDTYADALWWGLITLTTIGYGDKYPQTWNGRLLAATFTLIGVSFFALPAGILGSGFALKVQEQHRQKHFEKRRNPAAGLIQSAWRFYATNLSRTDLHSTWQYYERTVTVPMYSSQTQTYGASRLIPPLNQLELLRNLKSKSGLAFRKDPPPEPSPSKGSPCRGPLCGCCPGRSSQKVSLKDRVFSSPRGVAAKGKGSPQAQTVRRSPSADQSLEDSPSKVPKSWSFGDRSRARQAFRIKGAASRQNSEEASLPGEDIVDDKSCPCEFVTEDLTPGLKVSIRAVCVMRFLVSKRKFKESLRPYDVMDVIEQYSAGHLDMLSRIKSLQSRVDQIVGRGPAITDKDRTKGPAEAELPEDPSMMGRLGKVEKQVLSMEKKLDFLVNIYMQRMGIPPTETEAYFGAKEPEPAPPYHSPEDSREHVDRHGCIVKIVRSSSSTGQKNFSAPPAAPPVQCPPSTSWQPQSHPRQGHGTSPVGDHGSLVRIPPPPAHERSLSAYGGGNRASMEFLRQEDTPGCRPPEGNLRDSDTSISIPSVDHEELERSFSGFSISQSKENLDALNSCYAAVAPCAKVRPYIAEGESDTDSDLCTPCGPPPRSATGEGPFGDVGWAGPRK
Description: Potassium ion channel opener activity test (FDSS/μCELL detection, FluxOR thallium flux). Type of assay: cell-based.
Details: not given
As to the method: Potassium Ion Channel Opener Activity Test (FDSS/μCELL Detection)
1.1 Experimental procedure
Cell preparation: CHO-KCNQ2 cells were cultured in a 175 cm^2 culture flask, and when the cell density grew to 60-80%, the culture medium was removed, washed with 7 mL PBS (Phosphate Buffered Saline) once, then 3 mL 0.25% Trypsin was added to digest. After the digestion was completed, 7 mL culture medium (90% DMEM/F12+10% FBS±500 μg/mL G418) was added to neutralize, centrifugated for 3 minutes at 800 rpm. The supernatant was aspirated, then 5 mL culture medium was added to resuspend, and then the cells were counted.
Cell plating: according to the results of cell counting, the density was adjusted to 3×10^4 cells/well. After standing at room temperature for 30 minutes, the plate was placed in a 37° C. CO2 incubator and incubated overnight for 16-18 hours. The cell density reached about 80%.
Fluorescent dye incubation: the cell culture medium was discarded, 80 μL/well loading buffer was added, and incubated in the dark at room temperature for 60 minutes. Compound incubation: the loading buffer was discarded, 80 μL/well prepared compound solution was added, and incubated in the dark at room temperature for 20 minutes.
Fluorescence data collection: FDSS/μCELL instrument was used for real-time fluorescence signal recording with excitation wavelength at 480 nm and emission wavelength at 540 nm, recorded 1 time per second, and 20 μL/well stimulation buffer was started to add after recording for 10 seconds for baseline, and then continued to record until the end of 180 seconds.
The above buffer come from a commercially available kit named FluxOR potassium ion channel assay.
20 mM DMSO compound mother liquor was prepared, 10 μL of 20 mM compound mother liquor was took into 20 μL DMSO solution, serially diluted 3 times to 8 intermediate concentrations; then the intermediate concentrations of the compound was took out and added to the test buffer, diluted for 200 times to get the final concentration to be tested, 80 μL was took out and added to the test plate.
The highest test concentration was 100 μM, followed by […], 33.33, 11.11, 3.70, 1.23, 0.41, 0.137, 0.045 μM, total 8 concentrations. Each concentration set 3 duplicate wells.
This concentration of DMSO has no effect on the KCNQ2 potassium channel.
Experimental data was analyzed by Excel 2007 and GraphPad Prism 5.0 software, and the ratio of 180 seconds was calculated to calculate the agonism effect. The agonism effect of the compound was calculated by the following formula: […]
Reagent: FluxORTM Detection Kit (Invitrogen, Cat #F0017)
The experimental data in the report must meet the following criteria: Z′ Factor>0.5
2. Results: See Table 1, wherein the smaller the EC50 is, the higher the activity of the corresponding compound is.
On to `Cc1cc2c(c(C)c1NC(=O)CC1(C)CC1)CCN(c1ccccc1F)C2` [Compound A1], for which a half-maximal response (EC50) required 730 nM. That is a sub-micromolar value.

As for `Cc1cc2c(c(C)c1NC(=O)CC1(C)CC1)CCCN(c1ccc(F)cc1)C2` [Compound A2], it took 130 nM to reach a half-maximal effect (EC50). This EC50 lies about 5.6-fold lower than the previous one.

For `[2H]C1([2H])c2cc(C)c(NC(=O)CC3(C)CC3)c(C)c2CCN1c1ccc(C(F)(F)F)cc1` [Compound A3], the midpoint of the response, the EC50, lay at 210 nM. This EC50 is about 1.6-fold higher than that of the compound before.

Regarding `Cc1cc2c(c(C)c1NC(=O)CC1(C)CC1)CCN(c1cccc(C(F)(F)F)c1)C2` [Compound A4], the midpoint of the response, the EC50, lay at 270 nM.

On to `Cc1cc2c(c(C)c1NC(=O)CC1CC(F)(F)C1)CCN(c1ccc(F)cc1)C2` [Compound A5], for which the 50% effective concentration (EC50) was found to be 49 nM. Compared with the last compound, the EC50 is about 5.5-fold lower.

As for `Cc1cc2c(c(C)c1NC(=O)CC1(C(F)(F)F)CC1)CCN(c1ccc(F)cc1)C2` [Compound A6], the EC50 was found to be 290 nM. This EC50 is about 5.9-fold higher than that of the compound before.

`Cc1cc2c(c(C)c1NC(=O)CCC1CC1)CCN(c1ccc(F)cc1)C2` [Compound A7] yielded an EC50 of 400 nM.

Take `C#Cc1ccc(N2CCc3c(cc(C)c(NC(=O)CC(C)(C)C)c3C)C2)cc1` [Compound D]: the 50% effective concentration (EC50) came to 450 nM.

Regarding `Cc1cc2c(c(C)c1NC(=O)CC1(C)CC1)CCN(c1ccc(C#N)cc1)C2` [Compound O], a half-maximal effect (EC50) was put at 780 nM.

Consider `Cc1ccc(N2CCc3c(cc(C)c(NC(=O)CC(C)(C)C)c3C)C2)cc1` [Compound U], for which the EC50 worked out at 330 nM.

`Cc1cc2c(c(C)c1NC(=O)CC1(C)CC1)CCN(c1ccccc1)C2` [Compound V] had a half-maximal effective concentration (EC50) of 340 nM.

As for `Cc1cc2c(c(C)c1NC(=O)CC1(C)CC1)CCN(c1ccc(Cl)cc1)C2` [Compound W], a half-maximal response (EC50) required 180 nM.

Compound `Cc1cc2c(c(C)c1NC(=O)CC1(C)CC1)CCN(c1ccc(I)cc1)C2` [Compound X] returned an EC50 of 72 nM. Against the preceding compound, the EC50 is about 2.5-fold lower.

The compound `Cc1cc2c(c(C)c1NC(=O)CC1(C)CC1)CCN(c1ccc(Br)cc1)C2` [Compound Y] came in with a concentration giving a half-maximal response (EC50) of 200 nM.

For the compound `Cc1cc2c(c(C)c1NC(=O)CC1(C)CC1)CCN(c1cccc(F)c1)C2` [Compound Z], a half-maximal response (EC50) required 94 nM.

Still in this assay, the particulars now being: highest test concentration 100 μM.
As for `Cc1cc2c(c(C)c1NC(=O)CC1(C)CC1)CCN(c1ccccc1F)C2` [Compound A1], the “Maximum agonist rate (%)” value is recorded as 35.84%.

In the case of `Cc1cc2c(c(C)c1NC(=O)CC1(C)CC1)CCCN(c1ccc(F)cc1)C2` [Compound A2], the “Maximum agonist rate (%)” value is listed as 44.53%.

`[2H]C1([2H])c2cc(C)c(NC(=O)CC3(C)CC3)c(C)c2CCN1c1ccc(C(F)(F)F)cc1` [Compound A3]: the “Maximum agonist rate (%)” value came out at 36.16%.

On to `Cc1cc2c(c(C)c1NC(=O)CC1(C)CC1)CCN(c1cccc(C(F)(F)F)c1)C2` [Compound A4], for which the “Maximum agonist rate (%)” value amounted to 48.11%.

As for `Cc1cc2c(c(C)c1NC(=O)CC1CC(F)(F)C1)CCN(c1ccc(F)cc1)C2` [Compound A5], the “Maximum agonist rate (%)” value turned out to be 34.41%.

On to `Cc1cc2c(c(C)c1NC(=O)CC1(C(F)(F)F)CC1)CCN(c1ccc(F)cc1)C2` [Compound A6], for which the “Maximum agonist rate (%)” value turned out to be 17.08%.

`Cc1cc2c(c(C)c1NC(=O)CCC1CC1)CCN(c1ccc(F)cc1)C2` [Compound A7]: the “Maximum agonist rate (%)” value is given as 35.92%.

Regarding `C#Cc1ccc(N2CCc3c(cc(C)c(NC(=O)CC(C)(C)C)c3C)C2)cc1` [Compound D], the “Maximum agonist rate (%)” value turned out to be 29.51%.

`Cc1cc2c(c(C)c1NC(=O)CC1(C)CC1)CCN(c1ccc(C#N)cc1)C2` [Compound O]: the “Maximum agonist rate (%)” value stood at 29.43%.

Regarding `Cc1ccc(N2CCc3c(cc(C)c(NC(=O)CC(C)(C)C)c3C)C2)cc1` [Compound U], the “Maximum agonist rate (%)” value is 52.3%.

For `Cc1cc2c(c(C)c1NC(=O)CC1(C)CC1)CCN(c1ccccc1)C2` [Compound V], the “Maximum agonist rate (%)” value is listed as 45.76%.

As for `Cc1cc2c(c(C)c1NC(=O)CC1(C)CC1)CCN(c1ccc(Cl)cc1)C2` [Compound W], the “Maximum agonist rate (%)” value amounted to 33.2%.

With `Cc1cc2c(c(C)c1NC(=O)CC1(C)CC1)CCN(c1ccc(I)cc1)C2` [Compound X], the “Maximum agonist rate (%)” value was 28.94%.

Turning to `Cc1cc2c(c(C)c1NC(=O)CC1(C)CC1)CCN(c1ccc(Br)cc1)C2` [Compound Y], the “Maximum agonist rate (%)” value is 37.96%.

Consider `Cc1cc2c(c(C)c1NC(=O)CC1(C)CC1)CCN(c1cccc(F)c1)C2` [Compound Z], for which the “Maximum agonist rate (%)” value amounted to 48.65%.

One may read the EC50 as the concentration at which the effect is half-maximal. Low values mean a more potent agent, high ones a less potent agent.

For the origin of these results see patent publication US20230077155A1, “TETRAHYDROISOQUINOLINE COMPOUND AS POTASSIUM CHANNEL MODULATOR AND PREPARATION AND APPLICATION THEREOF” (Shanghai Zhimeng Biopharma, Inc., priority 2020, published 2023).
